Data as given in PubChem BioAssay AID2060352 (Molecular Pharmacology Branch, DTP, NCI, 2025).
Where “and” joins values, the source holds several entries; their conditions need not be identical. Equal values may be shown once.

Tested on: 616215-338-R-J1-PDC spheroid with HUVEC/MSC, viability
Assay: Anticancer human tumor 616215-338-R-J1-PDC patient-derived colon adenocarcinoma cell line growth inhibition [TAK]
Settings: for viability, T/C: stronger effect = lower value
Description: Combinatorial screen of targeted agents with TAK-243 and ipatasertib in multi-cell type tumor spheroids
A high-throughput screen of multi-cell type tumor spheroids was designed to identify active combinations of targeted small molecules and TAK-243 or ipatasertib. Complex spheroids include a stromal component modeled by human endothelial cells (HUVEC) and fibroblasts modeled by human mesenchymal stem cells (MSCs). The concentration ranges selected for each drug and investigational agent were based upon clinically achievable concentrations if the clinical Cmax of the agent was known.
Compounds. The drugs and investigational agents: TAK-243 (785004), ipatasertib (767898), everolimus (733504), selumetinib (741078), bortezomib (756655), trametinib (758246), ixazomib (758254), vemurafenib (761431), dabrafenib (764134), sapanisertib (764658), alpelisib (765974), and copanlisib (816437), were obtained from the National Cancer Institute (NCI) Developmental Therapeutics Program Chemical Repository. The FDA-approved anticancer drug set is available from the NCI Developmental Therapeutics Program. […] The stock solutions were prepared in dimethyl sulfoxide (DMSO, Sigma-Aldrich, St. Louis, MO, cat. D2650) at 800-fold the tested concentration and stored at -70 degrees C prior to their use. All drugs and investigational agents were tested over a range starting from a high concentration at or near the clinical Cmax and decreasing in half-log increments. If the clinical Cmax for an agent had not been determined, the highest concentration tested was 10 microM.
NCI60 Cell Culture. NCI60 cell lines were obtained from the NCI Developmental Therapeutics Program Tumor Repository. For each lot of cells, the Repository performed Applied Biosystems AmpFLSTR Identifiler testing with PCR amplification to confirm consistency with the published Identifier STR profile for each cell line. Cells were kept in continuous culture for no more than 20 passages. The optimal seeding densities for each of the cell lines at each time point assessed were determined prior to performing the concentration response studies. Briefly, the NCI60 human tumor lines were grown as monolayers in RPMI 1640 medium supplemented with 10% FBS and 2 mmol/L L-glutamine.
An additional 2 lines were from the NCI60 cell line panel including melanomas, MALME-3M and SK-MEL-2. Pooled donor human umbilical vein endothelial cells (HUVEC, Lonza, cat. CC-2519) and human mesenchymal stem cells (hMSC, Lonza, cat. PT-2501) were purchased from Lonza (Walkersville, MD).
PDMR cell lines were grown in complete medium (DC medium): Dulbecco's modified Eagle's medium (DMEM)/F12 supplemented with 5% fetal bovine serum (FBS), 2 mM L-glutamine, 100 U/mL penicillin and 100 µg/ml streptomycin, 0.4 µg/ml hydrocortisone, 10 ng/ml epidermal growth factor (EGF) recombinant human protein, 24 µg/mL adenine, and 0.1 mg/mL primocin. During culture from frozen stock vials, PDMR cells were cultured in the same medium containing 10 µM Y-27632 (see Table 3). The PDCs were cultured in complete DMEM/F12 media without 10 microM Y-27632 dihydrochloride for at least two passages prior to the screen. The pooled donor HUVEC and hMSC were cultured in endothelial cell growth medium 2 (PromoCell, Heidelberg, Germany, cat. C-22011) and mesenchymal stem cell growth medium 2 (PromoCell, cat. C-28009), respectively. For all experiments, HUVEC and hMSC were used at passages </=5.
For the pre-screen, cell seeding densities were determined from a titration spanning the range from 5,000 to 313 cells per well. The mct-spheroids including 60% malignant cells, 25% HUVEC and 15% MSC dispensed as a mixture into U-bottom Ultra-Low Attachment 384-well plates (Corning, NY)
High-throughput Drug Combination Screening.
Prior to their inoculation into 384-well plates, malignant cells, HUVEC, and hMSC were removed from T flasks using TrypLE express (Thermo Fisher Scientific, cat. 12605036) and harvested by centrifugation for 5 min at 233 x g. […]

[1] = curve of first compound, second compound 0.3 µM
[2] = curve of first compound, second compound 0.949 µM
[3] = curve of first compound, second compound 3 µM
[4] = curve of first compound, second compound 9.49 µM
[5] = curve of first compound, second compound 30 µM
[6] = second compound 0.3 µM, first compound 0.000316 µM
[7] = second compound 0.3 µM, first compound 0.001 µM
[8] = second compound 0.3 µM, first compound 0.00316 µM
[9] = second compound 0.3 µM, first compound 0.01 µM
[10] = second compound 0.3 µM, first compound 0.0316 µM
[11] = second compound 0.3 µM, first compound 0.1 µM
[12] = second compound 0.949 µM, first compound 0.000316 µM
[13] = second compound 0.949 µM, first compound 0.001 µM
[14] = second compound 0.949 µM, first compound 0.00316 µM
[15] = second compound 0.949 µM, first compound 0.01 µM
[16] = second compound 0.949 µM, first compound 0.0316 µM
[17] = second compound 0.949 µM, first compound 0.1 µM
[18] = second compound 3 µM, first compound 0.000316 µM
[19] = second compound 3 µM, first compound 0.001 µM
[20] = second compound 3 µM, first compound 0.00316 µM
[21] = second compound 3 µM, first compound 0.01 µM
[22] = second compound 3 µM, first compound 0.0316 µM
[23] = second compound 3 µM, first compound 0.1 µM
[24] = second compound 9.49 µM, first compound 0.000316 µM
[25] = second compound 9.49 µM, first compound 0.001 µM
[26] = second compound 9.49 µM, first compound 0.00316 µM
[27] = second compound 9.49 µM, first compound 0.01 µM
[28] = second compound 9.49 µM, first compound 0.0316 µM
[29] = second compound 9.49 µM, first compound 0.1 µM
[30] = second compound 30 µM, first compound 0.000316 µM
[31] = second compound 30 µM, first compound 0.001 µM
[32] = second compound 30 µM, first compound 0.00316 µM
[33] = second compound 30 µM, first compound 0.01 µM
[34] = second compound 30 µM, first compound 0.0316 µM
[35] = second compound 30 µM, first compound 0.1 µM
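Also: spheroids exposed to drugs for 7 days before readout.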

Compound	IC50 [1]	IC50 [2]	IC50 [3]	IC50 [4]	IC50 [5]	viability, T/C [6]	viability, T/C [7]	viability, T/C [8]	viability, T/C [9]	viability, T/C [10]	viability, T/C [11]	viability, T/C [12]	viability, T/C [13]	viability, T/C [14]	viability, T/C [15]	viability, T/C [16]	viability, T/C [17]	viability, T/C [18]	viability, T/C [19]	viability, T/C [20]	further results
Cc1nc(NC(=O)N2CCCC2C(N)=O)sc1-c1ccnc(C(C)(C)C(F)(F)F)c1 (configuration not stated)																					viability, T/C (compound 0.0316 µM): 118% and 104%; viability, T/C (compound 0.1 µM): 107% and 117%; viability, T/C (compound 0.316 µM): 120% and 111%; viability, T/C (compound 1 µM): 105% and 108%; viability, T/C (compound 3.16 µM): 106% and 111%; viability, T/C (compound 10 µM): 106% and 91.4%; IC50 (curve of compound): > 10000 nM
CC(C)CC(NC(=O)CNC(=O)c1cc(Cl)ccc1Cl)B1OC(=O)CC(CC(=O)O)(C(=O)O)O1 (configuration not stated) + CC(C)NCC(C(=O)N1CCN(c2ncnc3c2C(C)CC3O)CC1)c1ccc(Cl)cc1	21 nM	20.7 nM	14.2 nM	< 0.316 nM	< 0.316 nM	115%	123%	122%	105%	19.7%	0.11%	134%	136%	132%	129%	4.16%	0.13%	78.8%	68.6%	57.7%	viability, T/C [21]: 76.5%; viability, T/C [22]: 3.6%; viability, T/C [23]: 0.77%; viability, T/C [24]: 23.4%; viability, T/C [25]: 21.8%; viability, T/C [26]: 23.6%; viability, T/C [27]: 23.7%; viability, T/C [28]: 1.97%; viability, T/C [29]: 0.97%; viability, T/C [30]: 11.2%; viability, T/C [31]: 9.33%; viability, T/C [32]: 10.7%; viability, T/C [33]: 8.93%; viability, T/C [34]: 2.11%; viability, T/C [35]: 0.25%
CC(C)n1nc(-c2ccc3oc(N)nc3c2)c2c(N)ncnc21 + CC(C)NCC(C(=O)N1CCN(c2ncnc3c2C(C)CC3O)CC1)c1ccc(Cl)cc1	85.8 nM	18.3 nM	2.73 nM	< 0.316 nM	< 0.316 nM	93.5%	99.9%	107%	130%	112%	41.2%	112%	119%	109%	66.6%	36.7%	22.3%	77.2%	74.2%	43.5%	viability, T/C [21]: 28.2%; viability, T/C [22]: 17.5%; viability, T/C [23]: 13.7%; viability, T/C [24]: 28.6%; viability, T/C [25]: 25.8%; viability, T/C [26]: 19%; viability, T/C [27]: 13.1%; viability, T/C [28]: 11%; viability, T/C [29]: 10.2%; viability, T/C [30]: 12.6%; viability, T/C [31]: 11.5%; viability, T/C [32]: 11.4%; viability, T/C [33]: 7.84%; viability, T/C [34]: 7.49%; viability, T/C [35]: 7.08%
